Source: patent publication US12065443B2, “Compounds and pharmaceutical compositions thereof for the treatment of diseases” (priority 2017, dated 2024)

Tests used:
Assay in all cases: biochemical
[1] = target: T1, SIK2 (Homo sapiens, UniProt Q9H0K1); conditions: 33P radioactive SIK kinase assay, AMARA peptide, 10 μM ATP
T1 construct: purchased ThermoFisher Scientific PV4792
Description: (§1) The principle of the ^33P radioactive kinase assay consists in measuring the incorporated ^33P into the substrate AMARA peptide when phosphorylated by SIK1, SIK2 or SIK3 using [^33P]-g-ATP, which correlates with kinase activity.
(§2) 1% DMSO and 10 μM staurosporine final concentrations are used as negative and positive controls.
(§3) 11 μL of enzyme-substrate mixture is added on the assay plates. The reactions are started by adding 9 μL ATP mixture, consisting of non-labeled and ^33P-labeled ATP, on the assay plates.
(§4) The reactions are stopped by adding 25 μL phosphoric acid (150 mM) to the reactions.
(§5) After harvesting the kinase reactions, the filter plates are washed 6 times with phosphoric acid (75 mM). […] The top of the plates are sealed with TopSeal-A. Read-out is performed with a TopCount instrument (PerkinElmer Inc.).

[2] = target: T2, SIK3 (Homo sapiens, UniProt Q9Y2K2)
T2 construct: purchased SignalChem S12-11G-100
Description: as §1, §2, §3, §4, §5

[3] = target: T3, SIK1 (Homo sapiens, UniProt P57059); conditions: 33P radioactive SIK kinase assay, AMARA peptide, 10 μM ATP; read-out: SIK1 IC50
T3 construct: purchased Carna Biosciences 02-131
Description: as §1, §2, §3, §4, §5

T3 sequence (P57059 whole entry): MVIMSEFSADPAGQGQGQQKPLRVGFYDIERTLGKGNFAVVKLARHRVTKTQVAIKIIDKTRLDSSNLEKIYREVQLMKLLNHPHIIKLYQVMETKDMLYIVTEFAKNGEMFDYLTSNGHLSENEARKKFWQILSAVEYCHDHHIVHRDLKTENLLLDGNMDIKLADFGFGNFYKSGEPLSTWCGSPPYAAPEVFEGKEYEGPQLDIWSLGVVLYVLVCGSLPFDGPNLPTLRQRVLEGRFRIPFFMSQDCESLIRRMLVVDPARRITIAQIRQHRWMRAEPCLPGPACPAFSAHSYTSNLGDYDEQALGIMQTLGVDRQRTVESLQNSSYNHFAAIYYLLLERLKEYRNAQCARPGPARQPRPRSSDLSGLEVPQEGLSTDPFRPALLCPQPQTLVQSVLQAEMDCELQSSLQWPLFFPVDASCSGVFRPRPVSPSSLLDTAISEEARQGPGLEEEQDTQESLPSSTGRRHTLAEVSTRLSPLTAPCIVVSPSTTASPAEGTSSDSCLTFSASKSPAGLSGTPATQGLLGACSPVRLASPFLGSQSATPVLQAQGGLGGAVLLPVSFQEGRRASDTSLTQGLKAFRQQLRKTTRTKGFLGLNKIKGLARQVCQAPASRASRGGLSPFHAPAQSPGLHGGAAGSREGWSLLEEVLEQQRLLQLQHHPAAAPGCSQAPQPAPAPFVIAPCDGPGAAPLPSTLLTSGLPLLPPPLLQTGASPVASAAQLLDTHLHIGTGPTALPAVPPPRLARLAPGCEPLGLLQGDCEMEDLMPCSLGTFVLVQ
T1 sequence (Q9H0K1 whole entry): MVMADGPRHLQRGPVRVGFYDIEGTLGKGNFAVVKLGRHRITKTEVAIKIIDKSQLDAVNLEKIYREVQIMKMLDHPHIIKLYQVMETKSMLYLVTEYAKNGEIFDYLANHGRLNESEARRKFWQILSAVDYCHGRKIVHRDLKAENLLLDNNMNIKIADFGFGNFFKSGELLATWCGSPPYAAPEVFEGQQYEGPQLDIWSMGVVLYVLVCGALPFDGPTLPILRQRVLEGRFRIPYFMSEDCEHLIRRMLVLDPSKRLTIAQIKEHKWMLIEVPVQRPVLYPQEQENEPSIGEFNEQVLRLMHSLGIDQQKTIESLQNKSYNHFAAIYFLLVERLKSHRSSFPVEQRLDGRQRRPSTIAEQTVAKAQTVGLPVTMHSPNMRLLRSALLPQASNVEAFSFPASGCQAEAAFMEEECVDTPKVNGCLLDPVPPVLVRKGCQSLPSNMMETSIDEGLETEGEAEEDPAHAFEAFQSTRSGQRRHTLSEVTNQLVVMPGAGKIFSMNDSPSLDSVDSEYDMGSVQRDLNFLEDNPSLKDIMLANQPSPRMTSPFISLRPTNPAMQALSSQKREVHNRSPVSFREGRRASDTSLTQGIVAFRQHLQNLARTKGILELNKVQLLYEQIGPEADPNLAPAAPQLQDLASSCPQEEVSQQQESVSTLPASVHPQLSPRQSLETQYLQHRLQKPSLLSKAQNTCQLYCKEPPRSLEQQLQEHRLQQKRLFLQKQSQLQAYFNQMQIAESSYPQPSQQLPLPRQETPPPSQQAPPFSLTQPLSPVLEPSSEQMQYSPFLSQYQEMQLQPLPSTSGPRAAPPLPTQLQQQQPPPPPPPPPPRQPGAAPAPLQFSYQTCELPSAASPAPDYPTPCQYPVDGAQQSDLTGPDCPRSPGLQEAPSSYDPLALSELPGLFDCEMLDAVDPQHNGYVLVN
T2 sequence (Q9Y2K2 whole entry): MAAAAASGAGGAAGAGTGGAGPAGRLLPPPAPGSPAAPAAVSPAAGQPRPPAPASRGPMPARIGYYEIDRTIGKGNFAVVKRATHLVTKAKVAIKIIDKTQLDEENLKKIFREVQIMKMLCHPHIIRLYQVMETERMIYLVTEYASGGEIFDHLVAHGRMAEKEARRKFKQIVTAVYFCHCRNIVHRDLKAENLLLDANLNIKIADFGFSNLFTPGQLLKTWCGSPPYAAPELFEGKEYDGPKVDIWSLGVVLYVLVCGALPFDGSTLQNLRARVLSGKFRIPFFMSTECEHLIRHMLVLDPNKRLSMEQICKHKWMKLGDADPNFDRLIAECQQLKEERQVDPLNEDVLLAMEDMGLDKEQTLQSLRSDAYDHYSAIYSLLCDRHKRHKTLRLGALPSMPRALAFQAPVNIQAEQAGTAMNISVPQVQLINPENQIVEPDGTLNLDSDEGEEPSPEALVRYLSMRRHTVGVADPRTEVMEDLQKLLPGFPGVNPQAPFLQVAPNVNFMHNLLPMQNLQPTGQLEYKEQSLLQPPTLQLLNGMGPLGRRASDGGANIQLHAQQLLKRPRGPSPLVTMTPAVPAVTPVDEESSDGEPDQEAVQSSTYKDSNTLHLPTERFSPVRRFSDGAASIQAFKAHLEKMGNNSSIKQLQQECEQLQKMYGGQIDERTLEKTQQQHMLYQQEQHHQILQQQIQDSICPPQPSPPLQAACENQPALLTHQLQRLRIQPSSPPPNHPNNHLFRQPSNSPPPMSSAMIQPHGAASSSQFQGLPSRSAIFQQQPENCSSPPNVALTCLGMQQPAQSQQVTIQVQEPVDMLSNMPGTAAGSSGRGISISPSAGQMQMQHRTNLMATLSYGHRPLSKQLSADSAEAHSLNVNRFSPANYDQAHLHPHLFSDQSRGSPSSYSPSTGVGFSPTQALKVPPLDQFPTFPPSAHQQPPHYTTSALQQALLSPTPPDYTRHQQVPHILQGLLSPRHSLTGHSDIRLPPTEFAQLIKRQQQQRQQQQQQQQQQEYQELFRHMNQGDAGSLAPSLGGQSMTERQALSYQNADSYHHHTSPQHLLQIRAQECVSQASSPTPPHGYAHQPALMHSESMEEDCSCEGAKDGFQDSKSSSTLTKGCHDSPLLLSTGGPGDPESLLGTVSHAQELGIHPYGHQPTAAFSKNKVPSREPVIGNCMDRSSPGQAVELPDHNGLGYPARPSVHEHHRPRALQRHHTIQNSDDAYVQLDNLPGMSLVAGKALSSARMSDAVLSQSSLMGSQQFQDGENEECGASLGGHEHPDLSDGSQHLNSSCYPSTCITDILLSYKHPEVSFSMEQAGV

Row | SMILES | IC50 [1] [nM] | IC50 [2] [nM] | IC50 [3] [nM]
1 | COc1cc(-n2cnc3cc(-n4ccc(C)n4)ccc32)cc(OC)c1C(=O)NCC(F)(F)F [Cpd 154, 2,6-dimethoxy-4-[5-(3-methylpyrazol-1-yl)benzimidazol-1-yl]-N-(2,2,2-trifluoroethyl)benzamide] | 100 to 500 | 100 to 500 | 100 to 500
2 | COc1cc(-n2cnc3cc(-n4nc(C)cc4C)ccc32)cc(OC)c1C(=O)NCC(F)(F)F [Cpd 165, 4-[5-(3,5-dimethylpyrazol-1-yl)benzimidazol-1-yl]-2,6-dimethoxy-N-(2,2,2-trifluoroethyl)benzamide] | > 500 | > 500 | > 500
3 | COc1cc(-n2cnc3cc(-n4cnc(C)n4)ccc32)cc(OC)c1C(=O)NCC(F)(F)F [Cpd 166, 2,6-dimethoxy-4-[5-(3-methyl-1,2,4-triazol-1-yl)benzimidazol-1-yl]-N-(2,2,2-trifluoroethyl)benzamide] | > 500 | 100 to 500 | > 500
4 | COc1cc(-n2cnc3cc(-c4nnc(C)o4)ccc32)cc(OC)c1C(=O)NCC(F)(F)F [Cpd 167, 2,6-dimethoxy-4-[5-(5-methyl-1,3,4-oxadiazol-2-yl)benzimidazol-1-yl]-N-(2,2,2-trifluoroethyl)benzamide] | > 500 | 100 to 500 | > 500
5 | COc1cc(-n2cnc3cc(-c4nnc(C)n4C)ccc32)cc(OC)c1C(=O)NCC(F)(F)F [Cpd 168, 4-[5-(4,5-dimethyl-1,2,4-triazol-3-yl)benzimidazol-1-yl]-2,6-dimethoxy-N-(2,2,2-trifluoroethyl)benzamide] | > 500 | > 500 | > 500
6 | COc1cc(-n2cnc3cc(-c4nc(C)no4)ccc32)cc(OC)c1C(=O)NCC(F)(F)F [Cpd 169, 2,6-dimethoxy-4-[5-(3-methyl-1,2,4-oxadiazol-5-yl)benzimidazol-1-yl]-N-(2,2,2-trifluoroethyl)benzamide] | > 500 | > 500 | > 500
7 | CCn1cc(-c2ccc3c(c2)ncn3-c2cc(OC)c(C(=O)N(C)CCOC)c(OC)c2)cn1 [compound 27, 4-[5-(1-ethylpyrazol-4-yl)benzimidazol-1-yl]-2,6-dimethoxy-N-(2-methoxyethyl)-N-methyl-benzamide] | > 500 | > 500 | > 500
8 | CCn1cc(-c2ccc3c(c2)ncn3-c2cc(OC)c(C(=O)N(C)CC(C)C)c(OC)c2)cn1 [compound 28, 4-[5-(1-ethylpyrazol-4-yl)benzimidazol-1-yl]-N-isobutyl-2,6-dimethoxy-N-methyl-benzamide] | > 500 | > 500 | > 500
9 | CCn1cc(-c2ccc3c(c2)ncn3-c2cc(OC)c(C(=O)N(C)CC#N)c(OC)c2)cn1 [compound 31, N-(cyanomethyl)-4-[5-(1-ethylpyrazol-4-yl)benzimidazol-1-yl]-2,6-dimethoxy-N-methyl-benzamide] | 100 to 500 | 10 to 100 | 100 to 500
10 | COc1cncc(-c2ccc3c(c2)ncn3-c2cc(OC)c(C(=O)NCC(F)(F)F)c(OC)c2)c1 [compound 35, 2,6-dimethoxy-4-[5-(5-methoxy-3-pyridyl)benzimidazol-1-yl]-N-(2,2,2-trifluoroethyl)benzamide] | 100 to 500 | 10 to 100 | 100 to 500
11 | COc1cc(-n2cnc3cc(-c4ccc(N(C)C)nc4)ccc32)cc(OC)c1C(=O)NCC(F)(F)F [compound 37, 4-[5-[6-(dimethylamino)-3-pyridyl]benzimidazol-1-yl]-2,6-dimethoxy-N-(2,2,2-trifluoroethyl)benzamide] | 100 to 500 | 100 to 500 | 100 to 500

Second part, the compound after the results:

Row | IC50 [1] [nM] | IC50 [2] [nM] | IC50 [3] [nM] | SMILES
12 | 10 to 100 | 10 to 100 | 10 to 100 | COc1cc(-n2cnc3cc(-c4cnn(C)c4)ccc32)cc(OC)c1C(=O)NC1CCC[C@H]1O (stereo in doubt) [compound 140, N-[(1R,2R)-2-hydroxycyclopentyl]-2,6-dimethoxy-4-[5-(1-methylpyrazol-4-yl)benzimidazol-1-yl]benzamide]
13 | 10 to 100 | 10 to 100 | 10 to 100 | COc1cc(-n2cnc3cc(-c4cnn(C)c4)ccc32)cc(OC)c1C(=O)NC1CCC[C@@H]1O (stereo in doubt) [compound 141, N-[(1R,2S)-2-hydroxycyclopentyl]-2,6-dimethoxy-4-[5-(1-methylpyrazol-4-yl)benzimidazol-1-yl]benzamide]
14 | 10 to 100 | 100 to 500 | 100 to 500 | COc1cc(-n2cnc3cc(-c4cnn(C)c4)ccc32)cc(OC)c1C(=O)Nc1cnc(C)cn1 [Cpd 70, 2,6-dimcthoxy-N-(5-methylpyrazin-2-yl)-4-[5-(1-methylpyrazol-4-yl)benzimidazol-1-yl]benzamide]
15 | 100 to 500 | 100 to 500 | 100 to 500 | COc1cc(-n2cnc3cc(-c4cnn(C)c4)ccc32)cc(OC(C)C)c1C(=O)NC1CC1 [Cpd 119, N-cyclopropyl-2-isopropoxy-6-methoxy-4-[5-(1-methylpyrazol-4-yl)benzimidazol-1-yl]benzamide]
16 | 10 to 100 | 10 to 100 | 100 to 500 | CCn1cc(-c2ccc3c(c2)ncn3-c2cc(OC)c(C(=O)NCCO)c(OC)c2)cn1 [compound 5, 4-[5-(1-ethylpyrazol-4-yl)benzimidazol-1-yl]-N-(2-hydroxyethyl)-2,6-dimethoxy-benzamide]
17 | 10 to 100 | 100 to 500 | 100 to 500 | CCNC(=O)c1c(OC)cc(-n2cnc3cc(-c4cn(C)nc4C)ccc32)cc1OC [compound 8, 4-[5-(1,3-dimethylpyrazol-4-yl)benzimidazol-1-yl]-N-ethyl-2,6-dimethoxy-benzamide]
18 | 10 to 100 | 10 to 100 | 10 to 100 | CCNC(=O)c1c(O)cc(-n2cnc3cc(-c4cnn(CC)c4)ccc32)cc1OC [compound 23, N-ethyl-4-[5-(1-ethylpyrazol-4-yl)benzimidazol-1-yl]-2-hydroxy-6-methoxy-benzamide]
19 | 10 to 100 | 10 to 100 | 100 to 500 | COc1cc(-n2cnc3cc(-c4ccc(C#N)nc4)ccc32)cc(OC)c1C(=O)NCC(F)(F)F [compound 36, 4-[5-(6-cyano-3-pyridyl)benzimidazol-1-yl]-2,6-dimethoxy-N-(2,2,2-trifluoroethyl)benzamide]
20 | 10 to 100 | 10 to 100 | 100 to 500 | COc1cc(-n2cnc3cc(-c4ccc(N)nc4)ccc32)cc(OC)c1C(=O)NCC(F)(F)F [compound 38, 4-[5-(6-amino-3-pyridyl)benzimidazol-1-yl]-2,6-dimethoxy-N-(2,2,2-trifluoroethyl)benzamide]
21 | 10 to 100 | 10 to 100 | 100 to 500 | COc1cc(-n2cnc3cc(-c4cccnc4)ccc32)cc(OC)c1C(=O)NCC(F)(F)F [compound 39, 2,6-dimethoxy-4-[5-(3-pyridyl)benzimidazol-1-yl]-N-(2,2,2-trifluoroethyl)benzamide]
22 | 10 to 100 | 10 to 100 | 10 to 100 | CCn1cc(-c2ccc3c(c2)ncn3-c2cc(OC)c(C(=O)NC3CCCC3)c(OC)c2)cn1 [compound 45, N-cyclopentyl-4-[5-(1-ethylpyrazol-4-yl)benzimidazol-1-yl]-2,6-dimethoxy-benzamide]
